Laboratory results taken from publication PMC8773721, “A Small Molecule–Drug Conjugate (SMDC) Consisting of a Modified Camptothecin Payload Linked to an αVß3 Binder for the Treatment of Multiple Cancer Types” (Cancers, 2022).
Read-outs that look alike come from different tables or passages of the source. Marks after values point to notes of the source that are not given here.

How the values were obtained:
[1] = test system: SW480 CRC xenograft model; test: SW480 xenograft antitumor efficacy; format: in vivo, mouse; details: for Treatment/Control Ratio: Day 24; for Response: PD (progressive disease) / Response: PR (partial response) / Response: SD (stable disease): Day 24, RECIST
Description: In the SW480 efficacy study, immunocompromised female NMRI nu/nu mice (8–10 weeks, 18–21 g, Taconic M&B A/S) were inoculated subcutaneously with 3 × 10^6 SW480 cells suspended in 50% Matrigel®/50% medium. The mice were randomized into control and treatment groups (n = 8) when the SW480 tumors reached an average size of 25 mm^2.
Subcutaneous tumor growth was monitored by measuring tumor area (length × width) using a caliper. Animal body weight was monitored as an indicator of treatment-related toxicity. Measurement of tumor area and body weight was performed at least twice weekly. Individual animals were sacrificed when showing >20% body weight loss or when tumors reached a maximum area of ~200 mm^2 unless ulceration or other predefined humane endpoints were met. At study termination, the animals were sacrificed by cervical dislocation under CO2 anesthesia. T/C (treatment/control) ratios were calculated using the final mean tumor areas at study or control group termination. […] Progressive disease (PD) was defined as a greater than 20% increase in tumor size. Partial response (PR) was defined as a greater than 30% reduction in tumor size. Complete response (CR) was defined as an absence of any palpable tumor mass. No tumor growth or a slight reduction (<30%) or small increase (<20%) in tumor size was defined as stable disease (SD).

[2] = test system: NCI-H69 SCLC xenograft model; test: NCI-H69 xenograft antitumor efficacy and tolerability; format: in vivo, mouse; details: for Treatment/Control Ratio / Response: PD (progressive disease) / Response: SD (stable disease): NCI-H69, Day 31; for Response: PD (progressive disease) / Response: SD (stable disease): RECIST
Experimental: Irinotecan, doxorubicin, topotecan, cisplatin, and 5-FU were diluted in 0.9% NaCl.
In the NCI-H69 efficacy study, immunocompromised female NMRI nu/nu mice (8–10 weeks, 18–21 g, Taconic M&B A/S) were inoculated s.c. with 3 × 10^6 NCI-H69 cells suspended in 50% Matrigel®/50% medium. The mice were randomized into control and treatment groups (n = 8) when the NCI-H69 tumors reached an average size of 25 mm^2.
(§3) Subcutaneous tumor growth was monitored by measuring tumor area (length × width) using a caliper. Animal body weight was monitored as an indicator of treatment-related toxicity. Measurement of tumor area and body weight was performed at least twice weekly. Individual animals were sacrificed when showing >20% body weight loss or when tumors reached a maximum area of ~200 mm^2 unless ulceration or other predefined humane endpoints were met. At study termination, the animals were sacrificed by cervical dislocation under CO2 anesthesia. T/C (treatment/control) ratios were calculated using the final mean tumor areas at study or control group termination. Treatment responses were defined on the last day of the vehicle group (Day 38 for 786-O, Day 86 for MX-1, Day 31 for NCI-H69, and Day 24 for SW480) using the RECIST criteria [59]. Progressive disease (PD) was defined as a greater than 20% increase in tumor size. Partial response (PR) was defined as a greater than 30% reduction in tumor size. Complete response (CR) was defined as an absence of any palpable tumor mass. No tumor growth or a slight reduction (<30%) or small increase (<20%) in tumor size was defined as stable disease (SD).

[3] = test system: MX-1 TNBC xenograft model
Description: In the MX-1 efficacy study, the in vivo-grown tumor fragments (2 mm × 2 mm × 2 mm) were implanted s.c. in immunocompromised female NMRI nu/nu mice (8–10 weeks, 18–21 g, Taconic M&B A/S). The mice were randomized into control and treatment groups (n = 8) when the MX-1 tumors reached an average size of 25 mm^2.
as §3

NCI-H1975-BCRP cells = test: Cytotoxicity (Alamar Blue), NCI-H1975-BCRP; format: cell-based, human; details: 72 h, no elastase
Experimental: (§1) Cells (6 × 10^3 cells/well) were plated in RPMI-1640 medium supplemented with 2% fetal calf serum (FCS) minimal media (MM) in 96-well plates and allowed to adhere at 37 °C/5% CO2 for 24 h. […] The cells were incubated at 37 °C/5% CO2 for 72 h. Then, Alamar Blue (#DAL1100, Invitrogen, Waltham, MA, USA) was added at a 1:1 ratio, the cells were incubated at 37 °C/5% CO2 for 4 h, and fluorescence (530 nm/590 nm) was measured with a VICTOR X2 Multilabel Reader (PerkinElmer, Waltham, MA, USA). The fluorescent signal was directly proportional to the number of viable cells. The half-maximal growth inhibition (IC50) was determined from the dose–response curves using the GraphPad Prism software.

Caco-2 cells = test: Flux assay in Caco-2 cells; format: in vitro ADME, human; details: 2 μM, 2 h
Experimental: (§2) Before and after incubation for 2 h at 37 °C, samples were taken from both compartments and analyzed by LC-MS/MS. The apparent permeability coefficient (Papp) was calculated for both the apical to basolateral (A → B) and the basolateral to apical (B → A) direction as described by Schwab et al..

NCI-H1975 cells = test: Cytotoxicity (Alamar Blue), parental NCI-H1975; format: cell-based, human; details: 72 h, no elastase
Experimental: as §1

NCI-H1975-P-gp cells = test: Cytotoxicity (Alamar Blue), NCI-H1975-P-gp; format: cell-based, human; details: 72 h, no elastase
[4] = target: T1, human P-gp-expressing LLC-PK1 cells (Homo sapiens, UniProt P08183); test: Flux assay in human P-gp-expressing LLC-PK1 (L-MDR1) cells; format: in vitro ADME; details: 2 μM, 2 h
T1 construct: Schinkel, Netherlands Cancer Institute; host or cells: LLC-PK1 porcine renal epithelial cells (L-MDR1)
T1 sequence (P08183 whole entry): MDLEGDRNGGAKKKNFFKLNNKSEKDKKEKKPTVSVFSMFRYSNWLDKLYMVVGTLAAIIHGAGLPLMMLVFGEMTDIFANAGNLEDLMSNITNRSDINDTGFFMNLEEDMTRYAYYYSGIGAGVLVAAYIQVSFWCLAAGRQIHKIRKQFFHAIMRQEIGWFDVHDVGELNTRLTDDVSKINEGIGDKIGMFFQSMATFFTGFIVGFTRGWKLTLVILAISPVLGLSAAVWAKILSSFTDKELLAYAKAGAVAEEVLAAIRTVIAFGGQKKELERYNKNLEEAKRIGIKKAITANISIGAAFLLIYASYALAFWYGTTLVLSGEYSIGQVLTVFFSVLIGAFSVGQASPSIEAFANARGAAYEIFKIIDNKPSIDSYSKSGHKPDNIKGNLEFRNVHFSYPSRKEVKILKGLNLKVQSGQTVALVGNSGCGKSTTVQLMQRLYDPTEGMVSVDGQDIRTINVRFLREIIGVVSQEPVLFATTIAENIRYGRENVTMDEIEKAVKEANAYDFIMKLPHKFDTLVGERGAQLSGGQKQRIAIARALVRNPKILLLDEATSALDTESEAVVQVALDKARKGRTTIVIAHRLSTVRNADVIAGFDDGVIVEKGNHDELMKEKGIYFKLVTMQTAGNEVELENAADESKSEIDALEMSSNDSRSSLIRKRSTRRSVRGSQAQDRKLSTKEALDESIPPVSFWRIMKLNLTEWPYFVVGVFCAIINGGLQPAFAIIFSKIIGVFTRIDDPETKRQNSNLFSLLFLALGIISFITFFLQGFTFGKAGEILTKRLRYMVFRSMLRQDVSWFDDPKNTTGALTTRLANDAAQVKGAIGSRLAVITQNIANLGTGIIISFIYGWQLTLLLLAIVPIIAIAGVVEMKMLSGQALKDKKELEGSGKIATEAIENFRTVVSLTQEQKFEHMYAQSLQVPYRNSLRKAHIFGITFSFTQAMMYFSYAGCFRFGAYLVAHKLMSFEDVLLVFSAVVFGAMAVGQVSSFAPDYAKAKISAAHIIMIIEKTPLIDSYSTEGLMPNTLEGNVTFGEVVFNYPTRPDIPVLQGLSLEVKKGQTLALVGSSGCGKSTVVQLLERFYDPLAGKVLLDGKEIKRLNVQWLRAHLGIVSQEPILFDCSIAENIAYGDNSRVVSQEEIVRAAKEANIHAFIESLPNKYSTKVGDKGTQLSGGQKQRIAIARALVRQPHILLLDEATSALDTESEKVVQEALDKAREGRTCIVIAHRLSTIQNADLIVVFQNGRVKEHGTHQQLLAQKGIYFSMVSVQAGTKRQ
Experimental: as §2

[5] = cisplatin 3 mg/kg, Q3Dx14, i.p.
[6] = MX-1, irinotecan 15 mg/kg, 4 on/3 off, i.v., Day 86, RECIST
[7] = MX-1, irinotecan 30 mg/kg, Q2/3Dx9, i.v., Day 86, RECIST
[8] = irinotecan 15 mg/kg, 4 on/3 off, i.v.
[9] = irinotecan 30 mg/kg, Q2/3D, i.v.
[10] = topotecan 0.5 mg/kg, 7 on/7 off, i.v.

O=c1[nH]cc(F)c(=O)[nH]1 [5-FU, 5-fluorouracil]
Treatment/Control Ratio ([1]; 5-FU 100 mg/kg, Q7D, i.p.): 0.54 *** | Response: PD (progressive disease) ([1]; 5-FU 100 mg/kg, Q7D, i.p.): PD: 8/8

N.N.[Cl][Pt][Cl] [Cisplatin]
Treatment/Control Ratio [2, 5]: 0.25 *** | Response: PD (progressive disease) [2, 5]: 7/8 | Response: SD (stable disease) [2, 5]: 1/8 | Relative body weight loss ([2]; NCI-H69 tumor-bearing mice, cisplatin 3 mg/kg, Q3Dx14, i.p.): > 10% | Animal deaths ([2]; NCI-H69 tumor-bearing mice, cisplatin 3 mg/kg, Q3Dx14, i.p., Day 46): one animal died

COc1cccc2c1C(=O)c1c(O)c3c(c(O)c1C2=O)C[C@@](O)(C(=O)CO)C[C@@H]3O[C@H]1C[C@H](N)[C@H](O)[C@H](C)O1 [Doxorubicin]
Treatment/Control Ratio ([3]; MX-1, doxorubicin 10 mg/kg, Q14Dx2, i.v., Day 86): 0.49 ***

CCc1c2c(nc3ccc(OC(=O)N4CCC(N5CCCCC5)CC4)cc13)-c1cc3c(c(=O)n1C2)COC(=O)[C@]3(O)CC [Irinotecan]
Treatment/Control Ratio ([3]; MX-1, irinotecan 15 mg/kg, 4 on/3 off, i.v., Day 86): 0.002 *** | Response: CR (complete response) [3, 6]: CR: 4/8, PR: 4/8 | Response: PR (partial response) [3, 6]: CR: 4/8, PR: 4/8 | Tumor regrowth after treatment was stopped ([3]; MX-1, irinotecan 30 mg/kg, Q2/3Dx9, i.v.): clear tumor regrowth | Treatment/Control Ratio ([3]; MX-1, irinotecan 30 mg/kg, Q2/3Dx9, i.v., Day 86): 0.15 ***^, # | Response: PR (partial response) [3, 7]: 5/7 | Response: SD (stable disease) [3, 7]: 2/7 | Relative body weight loss ([3]; mouse, in vivo): > 10% | Tumor regrowth after treatment cessation ([1]; all VIP236- and irinotecan-treated mice): moderate tumor regrowth | Treatment/Control Ratio [1, 8]: 0.13 *** | Response: PR (partial response) [1, 8]: 5/8 | Response: SD (stable disease) [1, 8]: 3/8 | Treatment/Control Ratio [1, 9]: 0.15 *** | Response: PD (progressive disease) [1, 9]: 1/8 | Response: PR (partial response) [1, 9]: 4/8 | Response: SD (stable disease) [1, 9]: 3/8

CCc1c2c(nc3ccc(O)cc13)-c1cc3c(c(=O)n1C2)COC(=O)[C@]3(O)CC [SN38]
IC50 (NCI-H1975-BCRP cells): 512 nM | Efflux Ratio (Caco-2 cells): 36 | Permeability A → B (Caco-2 cells): 0.8 ×10⁻⁶ cm/s | IC50 (NCI-H1975 cells): 45 nM | IC50 (NCI-H1975-P-gp cells): 141 nM | Efflux Ratio [4]: 16 | Permeability A → B [4]: 1 ×10⁻⁶ cm/s

CC[C@@]1(O)C(=O)OCc2c1cc1n(c2=O)Cc2cc3c(CN(C)C)c(O)ccc3nc2-1 [Topotecan]
Treatment/Control Ratio [2, 10]: 0.20 *** | Response: PD (progressive disease) [2, 10]: 7/8 | Response: SD (stable disease) [2, 10]: 1/8 | Relative body weight loss ([2]; NCI-H69 tumor-bearing mice, topotecan 0.5 mg/kg, 7 on/7 off, i.v.): > 10%
